# In patent US20240109836A1, “NON-HALL[…] ANALOGS FOR TREATMENT OF NEUROLOGICAL AND PSYCHIATRIC DISORDERS” (The Trustees of Columbia University in the City of New York, priority 2021, published 2024):
# How the values were obtained:
# 5-HT2A = 5-HT2A (Homo sapiens, UniProt P28223); assay: IP1 agonist functional assay; format: cell-based
# [1] = Head twitch response assay; format: in vivo, Mice (C57bl/6J); details: mice, 1, 3, 10, and 30 mg/kg s.c., vs positive control DOI
# Description: FIG. 2. […] N=5 mice in each cohort. […] Drugs were administered s.c.
# Mice (C57bl/6J, 8-15 weeks, 26-33 g) were weighed and moved to the testing room 30 minutes prior to experimentation. Mice were administered the experimental compound at a selected dose s.c. and then immediately moved to a new cage. Before beginning the test, mice were allowed to remain in this cage for a set amount of time ranging 0-10 min based on the compound. The head twitch assay was performed by a trained observer watching the mouse for a 10 min duration and recording the total number of head twitches observed.
# DOI was tested at the doses of 1, 3, 10 and 30 mg/kg (s.c., 5 mice per dose) and testing began immediately after administration of the compound. Ariadne (32), (29) and (38) were tested at the doses of 1, 3, 10, and 30 mg/kg (s.c., 5 mice per dose) and there was a 10 min interval between treatment and testing.
# 5-HT2B = 5-HT2B (Homo sapiens, UniProt P41595); assay: IP1 agonist functional assay; format: cell-based
# Sequence of 5-HT2B (P41595 whole entry): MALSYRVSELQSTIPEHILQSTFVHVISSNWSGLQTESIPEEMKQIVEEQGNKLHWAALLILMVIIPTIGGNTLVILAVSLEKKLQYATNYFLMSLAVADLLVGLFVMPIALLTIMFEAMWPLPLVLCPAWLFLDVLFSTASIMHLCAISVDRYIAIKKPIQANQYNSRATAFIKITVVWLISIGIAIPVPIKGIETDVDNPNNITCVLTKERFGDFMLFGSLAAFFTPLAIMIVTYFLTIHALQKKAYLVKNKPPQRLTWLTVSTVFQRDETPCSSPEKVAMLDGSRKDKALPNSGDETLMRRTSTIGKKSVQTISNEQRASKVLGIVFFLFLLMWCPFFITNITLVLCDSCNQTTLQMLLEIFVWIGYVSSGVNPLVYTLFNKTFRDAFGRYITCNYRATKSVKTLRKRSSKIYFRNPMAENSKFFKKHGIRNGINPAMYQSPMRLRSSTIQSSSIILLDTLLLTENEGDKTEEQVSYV
# Sequence of 5-HT2A (P28223 whole entry): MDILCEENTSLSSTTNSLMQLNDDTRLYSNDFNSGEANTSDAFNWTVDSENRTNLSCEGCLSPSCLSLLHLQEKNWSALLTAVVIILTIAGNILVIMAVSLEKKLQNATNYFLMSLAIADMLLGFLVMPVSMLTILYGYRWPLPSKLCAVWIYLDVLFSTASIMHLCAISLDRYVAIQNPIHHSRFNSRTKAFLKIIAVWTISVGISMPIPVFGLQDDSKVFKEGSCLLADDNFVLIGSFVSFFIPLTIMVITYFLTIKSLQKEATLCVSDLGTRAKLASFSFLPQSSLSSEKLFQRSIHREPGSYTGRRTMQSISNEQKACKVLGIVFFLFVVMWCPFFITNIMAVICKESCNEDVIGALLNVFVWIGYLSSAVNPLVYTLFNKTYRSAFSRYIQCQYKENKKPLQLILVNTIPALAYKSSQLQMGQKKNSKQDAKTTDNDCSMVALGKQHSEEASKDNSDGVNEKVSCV
structure (smiles),measurement,setting,value
"CCC(N)Cc1cc(OC)c(C(F)(F)F)cc1OC (stereo not drawn) [compound 29, 1-(2,5-dimethoxy-4-(trifluoromethyl)phenyl) butan-2-amine]",EC50,5-HT2A,0.034 µM
same,Selectivity (EC50 2B ÷ EC50 2A),"5-HT2A; 5HT2A versus 5HT2B, relative agonism potencies",174x
same,psychedelic activity (number of head twitches in a 10-min period),[1],lower psychedelic activity
same,EC50,5-HT2B,5.9 µM
"CCC(N)Cc1cc(OC)c(COC)cc1OC (stereo not drawn) [compound 38, 1-(2,5-dimethoxy-4-(methoxymethyl)phenyl)butan-2-amine]",EC50,5-HT2A,3.8 µM
same,psychedelic activity (number of head twitches in a 10-min period),[1],lower psychedelic activity
